The values that follow come from patent publication US8063065B2, “Azaindazole compounds as CCR1 receptor antagonists” (Boehringer Ingelheim International GmbH, priority 2008, dated 2011).

The assay has as its target T1, CCR1 (Homo sapiens, UniProt P32246).
T1 sequence (P32246 1-355): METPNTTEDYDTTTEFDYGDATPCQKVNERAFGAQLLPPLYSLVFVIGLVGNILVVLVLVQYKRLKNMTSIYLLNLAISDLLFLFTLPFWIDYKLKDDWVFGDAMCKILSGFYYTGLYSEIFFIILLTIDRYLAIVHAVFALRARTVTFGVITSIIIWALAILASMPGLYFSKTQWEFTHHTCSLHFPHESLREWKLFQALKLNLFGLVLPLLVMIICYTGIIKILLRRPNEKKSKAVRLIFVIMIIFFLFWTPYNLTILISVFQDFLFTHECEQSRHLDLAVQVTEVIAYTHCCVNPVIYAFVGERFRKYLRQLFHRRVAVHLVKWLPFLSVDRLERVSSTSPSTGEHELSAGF
The experiment in a line: Method A: calcium flux in CCR1 transfected cells (Fluo-4 NW, FLIPR TETRA), block of the CCR1/MIP-1α interaction. In kind it is cell-based. As to conditions: Method A: Fluo-4 NW, MIP-1 alpha at EC80. As to the method: Compounds are assessed for the ability to block the interaction of CCR1 and MIP-1α in a functional cellular assay measuring calcium flux in CCR1 transfected cells.
Method A: Non-adherent cells purchased from Chemicon Corporation (HTS005C), stably expressing recombinant CCR1 and G-alpha-16 are grown in RPMI 1640 medium (Mediatech 10-080-CM) supplemented with 10% heat-inactivated FBS, 0.4 mg/mL Geneticin and penicillin/streptomycin. On the day of the assay, the cells are transferred to a beaker and dye-loaded in bulk using a Fluo-4 NW Calcium Assay Kit with probenecid (Invitrogen F36205) at 0.8E6 cells/mL for 1 hour at room temperature. After 1 hour, they are seeded in a 384-well tissue culture-treated plate at a density of 20,000 cells/well. Appropriately diluted test compound is added to the well to achieve a top concentration of 3,000 nM (diluted 4-fold with 10 doses total). The final concentration of DMSO is 1%. The buffer is HBSS (Invitrogen 14025) with 20 mM HEPES at pH 7.4. The cells are allowed to incubate 1 hour in the dark at room temperature. The plates are transferred to the FLIPR TETRA where MIP-1 alpha in 1% BSA is added at the EC80 final concentration. Wells+/−MIP-1 alpha containing diluted DMSO instead of compound serve as the controls. Intracellular calcium flux is recorded on the FLIPR TETRA, using excitation at 470/495 nm and emission at 515/575 nm. Data are analyzed using Activity Base software.

For orientation: IC50 means the concentration that inhibits the measured activity by half.

On to `C[C@H](NC(=O)c1cncc2c1cnn2-c1ccc(F)cc1)c1cccc(S(C)(=O)=O)n1` [1-(4-Fluorophenyl)-1H-pyrazolo[3,4-c]pyridine-4-carboxylic acid [(S)-1-(6-methanesulfonyl-pyridin-2-yl)-ethyl]-amide], for which the IC50 worked out at 6 nM.
Take `CCCC(NC(=O)c1cncc2c1cnn2-c1ccc(F)cc1)c1ccc(S(C)(=O)=O)nc1` (stereo not shown) [1-(4-Fluorophenyl)-1H-pyrazolo[3,4-c]pyridine-4-carboxylic acid [1-(6-methanesulfonyl-pyridin-3-yl)-butyl]-amide]: the concentration for half-maximal inhibition (IC50) is 0.8 nM.
On to `NC(=O)CNS(=O)(=O)c1ccc(CNC(=O)c2cncc3c2cnn3-c2ccc(F)cc2)cc1` [1-(4-Fluorophenyl)-1H-pyrazolo[3,4-c]pyridine-4-carboxylic acid 4-(carbamoylmethyl-sulfamoyl)-benzylamide], for which the IC50 turned out to be 22 nM.
The same measure for `CN(C)CCN(c1ccc(CNC(=O)c2cncc3c2cnn3-c2ccc(F)cc2)cn1)S(C)(=O)=O` [1-(4-Fluorophenyl)-1H-pyrazolo[3,4-c]pyridine-4-carboxylic acid {6-[(2-dimethylamino-ethyl)-methanesulfonyl-amino]-pyridin-3-ylmethyl}-amide]: 22 nM; for `C[C@H](NC(=O)c1cncc2c1cnn2-c1ccc(Cl)cc1)c1cncc(S(C)(=O)=O)c1` [1-(4-Chlorophenyl)-1H-pyrazolo[3,4-c]pyridine-4-carboxylic acid [(S)-1-(5-methanesulfonyl-pyridin-3-yl)-ethyl]-amide]: 4 nM.
The same measure for `CNS(=O)(=O)c1ccc(CNC(=O)c2cncc3c2cnn3-c2ccc(F)cc2)cc1F` [1-(4-Fluorophenyl)-1H-pyrazolo[3,4-c]pyridine-4-carboxylic acid 3-fluoro-4-methylsulfamoyl-benzylamide]: 1 nM; for `C[C@H](NC(=O)c1cncc2c1cnn2-c1ccc(Cl)cc1)c1cncc(Br)c1` [1-(4-Chlorophenyl)-1H-pyrazolo[3,4-c]pyridine-4-carboxylic acid [(S)-1-(5-bromopyridin-3-yl)-ethyl]-amide]: 2 nM; for `O=C(NCc1cc(Cl)cc(Cl)c1)c1cncc2c1cnn2-c1ccc(F)cc1` [1-(4-Fluorophenyl)-1H-pyrazolo[3,4-c]pyridine-4-carboxylic acid 3,5-dichloro-benzylamide]: 7 nM.
On to `CCC[C@H](NC(=O)c1cncc2c1cnn2-c1ccc(F)cc1)c1cncc(S(N)(=O)=O)c1` [1-(4-Fluorophenyl)-1H-pyrazolo[3,4-c]pyridine-4-carboxylic acid [(S)-1-(5-sulfamoyl-pyridin-3-yl)-butyl]-amide], for which the IC50 is 0.3 nM.
With `CN1CCC(N(C)S(=O)(=O)Cc2ccc(CNC(=O)c3cncc4c3cnn4-c3ccc(F)cc3)cc2)CC1` [1-(4-Fluorophenyl)-1H-pyrazolo[3,4-c]pyridine-4-carboxylic acid 4-{[methyl-(1-methyl-piperidin-4-yl)-sulfamoyl]-methyl}-benzylamide], the IC50 came to 33 nM.
The same measure for `CCC[C@H](NC(=O)c1cncc2c1cnn2-c1ccc(F)cc1)c1cncc(S(=O)(=O)O)c1` [5-((S)-1-{[1-(4-Fluorophenyl)-1H-pyrazolo[3,4-c]pyridine-4-carbonyl]-amino}-butyl)-pyridine-3-sulfonic acid]: 4 nM; for `CCCC(NC(=O)c1cncc2c1cnn2-c1ccc(F)cc1)c1cncc(S(N)(=O)=O)c1` (stereo not shown) [1-(4-Fluorophenyl)-1H-pyrazolo[3,4-c]pyridine-4-carboxylic acid [1-(5-sulfamoyl-pyridin-3-yl)-butyl]-amide]: 0.4 nM.
The same measure for `CCC(NC(=O)c1cncc2c1cnn2-c1ccc(F)cc1)c1ccc(S(C)(=O)=O)nc1` (stereo not shown) [1-(4-Fluorophenyl)-1H-pyrazolo[3,4-c]pyridine-4-carboxylic acid [1-(6-methanesulfonyl-pyridin-3-yl)-propyl]-amide]: 3 nM.
